# Measurements taken from EP4775582A1, “MACROCYCLIC COMPOUND AND ANTIBODY-DRUG CONJUGATE THEREOF” (Genfleet Therapeutics (Shanghai) Inc., priority 2023, dated 2025).
# Where two headings read alike, the source gives them in different places.
# Legend:
# KRAS WT-cRAF = KRAS WT-cRAF (Homo sapiens, UniProt P01116+P62937); test: Assay for binding of KRAS to cRAF (HTRF, with Cyclophilin A), KRAS WT
# Description: (§3) The plate was centrifuged at 1000 rpm for 1 min and then incubated in the thermostatic incubator at 20 °C for 30 min. […] The plate was centrifuged at 1000 rpm for 1 min and then incubated in the thermostatic incubator at 20 °C for 60 min. […] The working solution was added to the aforementioned assay plate at 5 µL/well. The plate was centrifuged at 1000 rpm for 1 min and then incubated in the thermostatic incubator at 20 °C for 60 min.
# KRAS G12V-cRAF = KRAS G12V-cRAF (Homo sapiens, UniProt P01116+P62937, G12V); test: Assay for binding of KRAS to cRAF (HTRF, with Cyclophilin A), KRAS G12V
# Description: as §3
# H441 p-ERK = test: Cell p-ERK assay (HTRF), NCI-H441 cells; type: cell-based, human; details: Homo sapiens; NCI-H441 cells (KRAS G12V), 3 h incubation
# Outline: (§1)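 Phospho-ERK (T202/Y204) was measured by HTRF in lysates after 3 h compound treatment at 37 °C. Cells had been plated the previous day at 20000 per well for NCI-H441 and 10000 per well for AsPC-1. Four-parameter dose-response fitting of % inhibition gave IC50 values.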
# AsPC-1 cells = test: 3D cell proliferation assay (CellTiter Glo-3D), AsPC-1; type: cell-based, human; details: Homo sapiens, ASPC1, 120 h
# Outline: (§2)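 IC50 values come from four-parameter fits of inhibition rate against log compound concentration, using CellTiter-Glo luminescence read after 5 days' exposure. AsPC-1 and NCI-H441 were plated at 800 cells per well in low-serum (2% FBS) medium. Compound was dosed the day after seeding, with incubation at 37 °C, 5% CO2.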
# NCI-H441 cells = test: 3D cell proliferation assay (CellTiter Glo-3D), NCI-H441; type: cell-based, human; details: Homo sapiens, 120 h, NCI-H441 cells (KRAS G12V), 2% FBS, 5 days, read-out: H441 AP IC50
# Outline: as §2
# AsPC-1 p-ERK = test: Cell p-ERK assay (HTRF), AsPC-1 cells; type: cell-based, human; details: Homo sapiens
# Outline: as §1
# [1] = read-out: KRAS WT-cRAF binding assay, GPPNP-KRAS WT, IC50 values
# [2] = read-out: KRAS G12V-cRAF binding assay, GPPNP-KRAS G12V, IC50 values
# [3] = KRAS WT-cRAF binding assay(nM), GPPNP-KRAS WT, IC50 values
# [4] = KRAS G12V-cRAF binding assay(nM), GPPNP-KRAS G12V, IC50 values
# [5] = AsPC-1 cells (KRAS G12D), 3D, 2% FBS, 5 days, read-out: AsPC-1 AP IC50
# [6] = ASPC1, AsPC-1 cells (KRAS G12D), 3 h incubation, read-out: AsPC-1 p-ERK IC50
# KRAS G12V-cRAF, sequence (P01116 1-188 isoform P01116-2 G12V): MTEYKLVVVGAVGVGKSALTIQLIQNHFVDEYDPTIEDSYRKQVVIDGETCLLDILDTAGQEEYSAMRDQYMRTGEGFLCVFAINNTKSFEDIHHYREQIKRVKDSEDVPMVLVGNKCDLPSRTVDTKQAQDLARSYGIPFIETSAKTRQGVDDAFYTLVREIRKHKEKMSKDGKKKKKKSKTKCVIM
# KRAS G12V-cRAF, sequence (P62937 whole entry): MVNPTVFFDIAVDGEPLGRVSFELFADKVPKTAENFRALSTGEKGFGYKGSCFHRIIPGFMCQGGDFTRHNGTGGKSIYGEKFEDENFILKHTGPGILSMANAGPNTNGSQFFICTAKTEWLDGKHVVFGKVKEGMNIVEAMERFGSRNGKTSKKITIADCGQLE
# KRAS WT-cRAF, sequence (P01116 1-188 isoform P01116-2): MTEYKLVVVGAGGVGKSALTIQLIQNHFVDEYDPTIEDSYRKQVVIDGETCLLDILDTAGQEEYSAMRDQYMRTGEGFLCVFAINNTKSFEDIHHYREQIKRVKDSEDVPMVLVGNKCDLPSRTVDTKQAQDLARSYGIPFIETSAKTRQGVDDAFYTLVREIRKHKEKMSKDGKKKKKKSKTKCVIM
# KRAS WT-cRAF, sequence (P62937 whole entry): as the sequence (P62937 whole entry) above
IC50 (KRAS WT-cRAF; [1]) [nM],IC50 (KRAS G12V-cRAF; [2]) [nM],IC50 (KRAS WT-cRAF; [3]) [nM],IC50 (KRAS G12V-cRAF; [4]) [nM],IC50 (H441 p-ERK) [nM],IC50 (AsPC-1 cells; [5]) [nM],IC50 (NCI-H441 cells) [nM],IC50 (AsPC-1 p-ERK; [6]) [nM],IC50 (AsPC-1 cells; read-out: AsPC-1 AP IC50(nM)) [nM],"IC50 (AsPC-1 p-ERK; ASPC1, 3 h, read-out: AsPC-1 p-ERK IC50(nM)) [nM]",Structure (SMILES)
58.2,17.5,–,–,–,–,–,–,–,–,"CCn1c(-c2cc(C#CCN3CCC(C#N)CC3)cnc2[C@H](C)NC)c2c3cc(ccc31)-c1csc(n1)C[C@H](NC(=O)[C@H]1[C@@H]3COC[C@@H]31)C(=O)N1CCC[C@H](N1)C(=O)OCC(C)(C)C2 (atropisomer, axis not shown; (Ra)) [Compound Z169-1, (1R,5S,6r)-N-((6^3S,4S,Z)-(Ra)-1^2-(5-(3-(4-cyanopiperidin-1-yl)prop-1-yn-1-yl)-2-((S)-1-(methylamino)ethyl)pyridin-3-yl)-1^1-ethyl-10,10-dimethyl-5,7-dioxo-6^1,6^2,6^3,6^4,6^5,6^6-hexahydro-1^1H-8-oxa-2(4,2)-thiazola-1(5,3)-indola-6(1,3)-pyridazinacycloundecaphane-4-yl)-3-oxabicyclo[3.1.0]hexane-6-carboxamide]"
–,–,18.7,8.29,–,–,–,–,–,–,"CCn1c(-c2cc(C#CCN3CCC(C#N)CC3)cnc2C(C)OC)c2c3cc(ccc31)-c1coc(n1)CC(NC(=O)C1C(C)C1C)C(=O)N1CCCC(N1)C(=O)OCC(C)(C)C2 (atropisomer, axis not shown; (Ra)) [Compound Z155, (1r,2R,3S)-N-((6^3S,4S,Z)-(Ra)^2-(5-(3-(4-cyanopiperidin-1-yl)prop-1-yn-1-yl)-2-((S)-1-methoxyethyl)pyridin-3-yl)-1^1-ethyl-10,10-dimethyl-5,7-dioxo-6^1,6^2,6^3,6^4,6^5,6^6-hexahydro-1^1H-8-oxa-2(4,2)-oxazola-1(5,3)-indola-6(1,3)-pyridazinacycloundecaphan-4-yl)-2,3-dimethylcyclopropanecarboxamide]"
22.1,9.1,–,–,–,–,–,–,–,–,"CCn1c(-c2cc(C#CCN3CCC(C#N)(CO)CC3)cnc2[C@H](C)OC)c2c3cc(ccc31)-c1csc(n1)C[C@H](NC(=O)[C@H]1[C@@H]3COC[C@@H]31)C(=O)N1CCC[C@H](N1)C(=O)OCC(C)(C)C2 (atropisomer, axis not shown) [Compound Z39]"
–,–,22.6,5.1,–,–,–,–,–,–,"CCn1c(-c2cc(C#CCN3CCS(=O)(=O)CC3)cnc2C(C)OC)c2c3cc(ccc31)-c1csc(n1)CC(NC(=O)C1C(C)C1C(=O)NCCO)C(=O)N1CCCC(N1)C(=O)OCC(C)(C)C2 (atropisomer, axis not shown; (Ra)) [Compound Z13-2, (1S,2S,3R)-N^1-((6^3S,4S,Z)-(Ra)-1^2-(5-(3-(1,1-dioxidothiomorpholino)prop-1-yn-1-yl)-2-((S)-1-methoxyethyl)pyridin-3-yl)-1^1-ethyl-10,10-dimethyl-5,7-dioxo-6^1,6^2,6^3,6^4,6^5,6^6-hexahydro-1^1H-8-oxa-2(4,2)-thiazola-1(5,3)-indola-6(1,3)-pyridazinacycloundecaphane-4-yl)-N^2-(2-hydroxyethyl)-3-methylcyclopropane-1,2-dicarboxamide]"
22.9,5,–,–,0.14,–,0.25,–,0.15,0.06,"CCn1c(-c2cc(C#CCN3CCS(=O)(=O)CC3)cnc2[C@H](C)OC)c2c3cc(ccc31)-c1csc(n1)[C@@H](N)[C@H](NC(=O)[C@H]1[C@H](C)[C@@H]1C)C(=O)N1CCC[C@H](N1)C(=O)OCC(C)(C)C2 (atropisomer, axis not shown; (Ra)) [Compound Z65, (1r,2R,3S)-N-((6^3S,3S,4S,Z)-3-amino-(Ra)-1^2-(5-(3-(1,1-dioxidothiomorpholino)prop-1-yn-1-yl)-2-((S)-1-methoxyethyl)pyridin-3-yl)-1^1-ethyl-10,10-dimethyl-5,7-dioxo-6^1,6^2,6^3,6^4,6^5,6^6-hexahydro-11H-8-oxa-2(4,2)-thiazola-1(5,3)-indola-6(1,3)-pyridazinacycloundecaphane-4-yl)-2,3-dimethylcyclopropane-1-carboxamide]"
–,–,47.5,18.6,1.09,8.37,2.31,1.54,–,–,"CCn1c(-c2cc(C#CCN3CCS(=O)(=O)CC3)cnc2C(C)OC)c2c3cc(ccc31)-c1cc(N)cc(c1)CC(NC(=O)C1C(C)C1C)C(=O)N1CCCC(N1)C(=O)OCC(C)(C)C2 (atropisomer, axis not shown; (Ra)) [Compound Z22, (1r,2R,3S)-N-((6^3S,4S)-2^5-amino-(Ra)-1^2-(5-(3-(1,1-dioxidothiomorpholino)prop-1-yn-1-yl)-2-((S)-1-methoxyethyl)pyridin-3-yl)-1^1-ethyl-10,10-dimethyl-5,7-dioxo-6^1,6^2,6^3,6^4,6^5,6^6-hexahydro-1^1H-8-oxa-1(5,3)-indola-6(1,3)-pyridazina-2(1,3)-benzenacycloundecaphane-4-yl)-2,3-dimethylcyclopropane-1-carboxamide]"
–,–,16.4,7.75,0.09,–,–,0.03,–,–,"CCn1c(-c2cc(C#CCN3CCC(C#N)CC3)cnc2C(C)OC)c2c3cc(ccc31)-c1coc(n1)CC(NC(=O)C1C3COCC31)C(=O)N1CCCC(N1)C(=O)OCC(C)(C)C2 (atropisomer, axis not shown; (Ra)) [Compound Z168, (1R,5S,6r)-N-((6^3S,4S,Z)-(Ra)-1^2-(5-(3-(4-cyanopiperidin-1-yl)prop-1-yn-1-yl)-2-((S)-1-methoxyethyl)-pyridin-3-yl)-1^1-ethyl-10,10-dimethyl-5,7-dioxo-6^1,6^2,6^3,6^4,6^5,6^6-hexahydro-1^1H-8-oxa-2(4,2)-oxazola-1(5,3)-indola-6(1,3)-pyridazinacycloundecaphane-4-yl)-3-oxabicyclo[3.1.0]hexane-6-carboxamide]"
–,–,15.3,15.2,0.15,0.32,0.16,0.28,–,–,"CCn1c(-c2cc(C#CCN3CCS(=O)(=O)CC3)cnc2C(C)O)c2c3cc(ccc31)-c1csc(n1)CC(NC(=O)C1C(C)C1C)C(=O)N1CCCC(N1)C(=O)OCC(C)(C)C2 (atropisomer, axis not shown; (Ra)) [Compound Z60, (1r,2R,3S)-N-((6^3S,4S,Z)-(Ra)-1^2-(5-(3-(1,1-dioxidothiomorpholino)prop-1-yn-1-yl)-2-((S)-1-hydroxyethyl)pyridin-3-yl)-1^1-ethyl-10,10-dimethyl-5,7-dioxo-6^1,6^2,6^3,6^4,6^5,6^6-hexahydro-1^1H-8-oxa-2(4,2)-thiazola-1(5,3)-indola-6(1,3)-pyridazinacycloundecaphane-4-yl)-2,3-dimethylcyclopropane-1-carboxamide]"
–,–,21.8,5.2,–,3.7,3.36,–,–,–,"CCn1c(-c2cc(C#CCN3CCS(=O)(=O)CC3)cnc2C(C)OC)c2c3cc(ccc31)-c1csc(n1)CC(NC(=O)C1C(C)C1C(=O)NCCO)C(=O)N1CCCC(N1)C(=O)OCC(C)(C)C2 (atropisomer, axis not shown; (Ra)) [Compound Z13-1, (1R,2R,3S)-N^1-((6^3S,4S,Z)-(Ra)-1^2-(5-(3-(1,1-dioxidothiomorpholino)prop-1-yn-1-yl)-2-((S)-1-methoxyethyl)pyridin-3-yl)-1^1-ethyl-10,10-dimethyl-5,7-dioxo-6^1,6^2,6^3,6^4,6^5,6^6-hexahydro-1^1H-8-oxa-2(4,2)-thiazola-1(5,3)-indola-6(1,3)-pyridazinacycloundecaphane-4-yl)-N^2-(2-hydroxyethyl)-3-methylcyclopropane-1,2-dicarboxamide]"

Structure (SMILES),IC50 (KRAS WT-cRAF; [1]) [nM],IC50 (KRAS G12V-cRAF; [2]) [nM],IC50 (KRAS WT-cRAF; [3]) [nM],IC50 (KRAS G12V-cRAF; [4]) [nM],IC50 (H441 p-ERK) [nM],IC50 (AsPC-1 cells; [5]) [nM],IC50 (NCI-H441 cells) [nM],IC50 (AsPC-1 p-ERK; [6]) [nM],IC50 (AsPC-1 cells; read-out: AsPC-1 AP IC50(nM)) [nM],"IC50 (AsPC-1 p-ERK; ASPC1, 3 h, read-out: AsPC-1 p-ERK IC50(nM)) [nM]"
"CCn1c(-c2cc(C#CCN3CCC(C#N)(CN)CC3)c[n+]([O-])c2[C@H](C)OC)c2c3cc(ccc31)-c1csc(n1)C[C@H](NC(=O)[C@H]1[C@H](C)[C@@H]1C)C(=O)N1CCC[C@H](N1)C(=O)OCC(C)(C)C2 (atropisomer, axis not shown; (Ra)) [Compound Z57, 5-(3-(4-(aminomethyl)-4-cyanopiperidin-1-yl)prop-1-yn-1-yl)-(Ra)-3-((6^3S,4S,Z)-4-((1r,2R,3S)-2,3-dimethylcyclopropane-1-carboxamido)-1^1-ethyl-10,10-dimethyl-5,7-dioxo-6^1,6^2,6^3,6^4,6^5,6^6-hexahydro-1^1H-8-oxa-2(4,2)-thiazola-1(5,3)-indola-6(1,3)-pyridazinacycloundecaphane-1^2-yl)-2-((S)-1-methoxyethyl)pyridine 1-oxide]",38.8,6.3,–,–,1.47,0.47,1.34,0.81,–,–
